Experimental data taken from PubChem BioAssay AID1963979 (Molecular Pharmacology Branch, DTP, NCI, 2024).

Tested on: 361931-004-R-J1-PDC multicell spheroid viability
Assay: Anticancer human tumor 361931-004-R-J1-PDC patient-derived colon adenocarcinoma cell line growth inhibition [PI3K]
Conditions: for IC50: curve of first compound; for viability, T/C: stronger effect = lower value
Summary of the method: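 Agents were dosed from a top concentration near clinical Cmax (otherwise 10 microM) in half-log decrements, alone or combined with PI3K inhibitors. The spheroids contain tumor cells plus endothelial (HUVEC) and MSC stroma; viability is measured.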
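Also: spheroids exposed to agents for seven days before readout.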

Question: With Cn1ncc(Cl)c1-c1cc(C(=O)NC(CN)Cc2cccc(F)c2)sc1Cl (configuration not stated) + Cc1nc(NC(=O)N2CCCC2C(N)=O)sc1-c1ccnc(C(C)(C)C(F)(F)F)c1 as the molecule, how does the IC50 (second compound 0.0316 µM) read?
Answer: 1320 nM

Question: And the IC50 (second compound 0.1 µM)?
Answer: 922 nM

Question: What about the IC50 (second compound 0.316 µM) of the same molecule?
Answer: 793 nM

Question: What about the IC50 (second compound 1 µM) of the same molecule?
Answer: 715 nM

Question: What about the IC50 (second compound 3.16 µM) of the same molecule?
Answer: 628 nM

Question: And the IC50 (second compound 10 µM)?
Answer: 411 nM

Question: What about the viability, T/C (second compound 0.0316 µM, first compound 0.0316 µM) of the same molecule?
Answer: 98.5%

Question: And the viability, T/C (second compound 0.0316 µM, first compound 0.1 µM)?
Answer: 95%

Question: What about the viability, T/C (second compound 0.0316 µM, first compound 0.316 µM) of the same molecule?
Answer: 83.4%

Question: What about the viability, T/C (second compound 0.0316 µM, first compound 1 µM) of the same molecule?
Answer: 53.4%

Question: What about the viability, T/C (second compound 0.0316 µM, first compound 3.16 µM) of the same molecule?
Answer: 34.3%

Question: And the viability, T/C (second compound 0.0316 µM, first compound 10 µM)?
Answer: 19.7%

Question: What about the viability, T/C (second compound 0.1 µM, first compound 0.0316 µM) of the same molecule?
Answer: 96.3%

Question: And the viability, T/C (second compound 0.1 µM, first compound 0.1 µM)?
Answer: 95.3%

Question: What about the viability, T/C (second compound 0.1 µM, first compound 0.316 µM) of the same molecule?
Answer: 71.8%

Question: What about the viability, T/C (second compound 0.1 µM, first compound 1 µM) of the same molecule?
Answer: 48.8%

Question: And the viability, T/C (second compound 0.1 µM, first compound 3.16 µM)?
Answer: 29.8%

Question: What about the viability, T/C (second compound 0.1 µM, first compound 10 µM) of the same molecule?
Answer: 20.5%

Question: What about the viability, T/C (second compound 0.316 µM, first compound 0.0316 µM) of the same molecule?
Answer: 100%

Question: And the viability, T/C (second compound 0.316 µM, first compound 0.1 µM)?
Answer: 87.5%

Question: And the viability, T/C (second compound 0.316 µM, first compound 0.316 µM)?
Answer: 77.2%

Question: And the viability, T/C (second compound 0.316 µM, first compound 1 µM)?
Answer: 40%

Question: And the viability, T/C (second compound 0.316 µM, first compound 3.16 µM)?
Answer: 28%

Question: What about the viability, T/C (second compound 0.316 µM, first compound 10 µM) of the same molecule?
Answer: 14.5%

Question: And the viability, T/C (second compound 1 µM, first compound 0.0316 µM)?
Answer: 89.8%

Question: And the viability, T/C (second compound 1 µM, first compound 0.1 µM)?
Answer: 93.7%

Question: And the viability, T/C (second compound 1 µM, first compound 0.316 µM)?
Answer: 72.3%

Question: What about the viability, T/C (second compound 1 µM, first compound 1 µM) of the same molecule?
Answer: 39.1%

Question: What about the viability, T/C (second compound 1 µM, first compound 3.16 µM) of the same molecule?
Answer: 28.8%

Question: What about the viability, T/C (second compound 1 µM, first compound 10 µM) of the same molecule?
Answer: 16%

Question: What about the viability, T/C (second compound 3.16 µM, first compound 0.0316 µM) of the same molecule?
Answer: 77.4%

Question: What about the viability, T/C (second compound 3.16 µM, first compound 0.1 µM) of the same molecule?
Answer: 87.1%

Question: And the viability, T/C (second compound 3.16 µM, first compound 0.316 µM)?
Answer: 67.8%

Question: What about the viability, T/C (second compound 3.16 µM, first compound 1 µM) of the same molecule?
Answer: 35.1%

Question: And the viability, T/C (second compound 3.16 µM, first compound 3.16 µM)?
Answer: 29.2%

Question: And the viability, T/C (second compound 3.16 µM, first compound 10 µM)?
Answer: 11.6%

Question: What about the viability, T/C (second compound 10 µM, first compound 0.0316 µM) of the same molecule?
Answer: 77.2%

Question: And the viability, T/C (second compound 10 µM, first compound 0.1 µM)?
Answer: 69.1%

Question: And the viability, T/C (second compound 10 µM, first compound 0.316 µM)?
Answer: 54.9%

Question: And the viability, T/C (second compound 10 µM, first compound 1 µM)?
Answer: 34.2%

Question: And the viability, T/C (second compound 10 µM, first compound 3.16 µM)?
Answer: 20.6%

Question: What about the viability, T/C (second compound 10 µM, first compound 10 µM) of the same molecule?
Answer: 7.91%
